Measurements reported in US20260256738A1, “METHODS OF TREATING CANCER WITH A RAS MUTATION” (Immuneering Corporation, priority 2023, published 2026).
Read-outs that look alike come from different tables or passages of the source. Blank lines part the entries; values can stand above or below the molecule they belong to.

How the values were obtained:
[1] = Human plasma pharmacokinetics of approved MEK inhibitors; assay type: in vivo; settings: human dosing cycle
[2] = cited from earlier work
[3] = Plasma Stability (% remaining @2 hour); assay type: in vitro ADME; settings: Human; 2 μM
[4] = Plasma Stability (% remaining @2 hour); assay type: in vitro ADME; settings: Beagle Dog; 2 μM
[5] = Plasma Stability (% remaining @2 hour); assay type: in vitro ADME; settings: SD Rat; 2 μM
[6] = Plasma Stability (% remaining @2 hour); assay type: in vitro ADME; settings: CD-1 Mouse; 2 μM
CYP450 2D6 [7] = biological target: T1, CYP450 2D6 (Homo sapiens, UniProt P10635)
T1 sequence (P10635 whole entry): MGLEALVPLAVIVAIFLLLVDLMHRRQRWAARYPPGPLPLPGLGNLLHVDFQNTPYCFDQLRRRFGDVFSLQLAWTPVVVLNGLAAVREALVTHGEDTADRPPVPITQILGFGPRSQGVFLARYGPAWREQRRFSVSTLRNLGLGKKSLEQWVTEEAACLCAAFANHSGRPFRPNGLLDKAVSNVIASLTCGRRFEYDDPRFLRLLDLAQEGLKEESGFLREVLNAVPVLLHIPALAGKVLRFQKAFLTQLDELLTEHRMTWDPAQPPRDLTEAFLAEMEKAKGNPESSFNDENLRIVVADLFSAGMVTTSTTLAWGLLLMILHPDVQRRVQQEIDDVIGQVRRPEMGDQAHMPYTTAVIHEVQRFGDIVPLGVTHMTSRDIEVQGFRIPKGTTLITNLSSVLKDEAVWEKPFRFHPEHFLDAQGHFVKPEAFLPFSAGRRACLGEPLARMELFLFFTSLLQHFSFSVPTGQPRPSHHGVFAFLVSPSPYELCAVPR

CYP450 2C9 = CYP450 2C9 (Homo sapiens, UniProt P11712); test: CYP450 Panel; assay type: in vitro ADME; settings: 10 μM; substrate Diclofenac; in % (unit assumed)
Chain of CYP450 2C9 (P11712 whole entry): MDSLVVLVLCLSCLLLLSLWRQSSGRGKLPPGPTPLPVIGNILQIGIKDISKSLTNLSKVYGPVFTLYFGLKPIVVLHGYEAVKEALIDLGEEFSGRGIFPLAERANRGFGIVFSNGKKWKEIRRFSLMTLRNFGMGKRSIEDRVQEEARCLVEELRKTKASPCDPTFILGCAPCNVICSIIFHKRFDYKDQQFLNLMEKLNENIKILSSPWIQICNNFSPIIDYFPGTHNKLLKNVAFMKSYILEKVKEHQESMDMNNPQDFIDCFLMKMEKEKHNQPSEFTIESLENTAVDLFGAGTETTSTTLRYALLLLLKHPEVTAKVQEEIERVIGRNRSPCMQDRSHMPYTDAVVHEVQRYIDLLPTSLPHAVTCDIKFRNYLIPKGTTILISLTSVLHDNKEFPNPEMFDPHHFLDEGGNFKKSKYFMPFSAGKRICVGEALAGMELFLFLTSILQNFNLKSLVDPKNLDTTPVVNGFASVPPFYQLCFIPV

[8] = eLogD (lipophilicity; pH=7.4); assay type: physicochemical
Experimental: Test compounds were dissolved in DMSO at a concentration of 10 mM and further diluted with methanol:water 1:1. Samples were analyzed using gradient HPLC with three different isocratic mobile phases of 0.25% octanol in methanol (60, 65 and 70%) and 20 mM MOPS buffer (pH 7.4) with decylamine. If needed, (for low E log Doct compounds) the isocratic mobile phases were adjusted to e.g. 40, 45 and 50% methanol. Peaks were detected using a diode array at absorbance 220-320 nm.
Capacity factors data (k′_(tr−_t0)/t0) obtained at various amounts of methanol were extrapolated to 0% methanol and k′w values are determined using a linear procedure. E log Doct (7.4) is calculated using a series of reference standards with known Log D values. Each experiment was performed in triplicate.

[9] = Microsome Stability (% remaining @1 hour); assay type: in vitro ADME; settings: Human; 2 μM
[10] = Microsome Stability (% remaining @1 hour); assay type: in vitro ADME; settings: Beagle Dog; 2 μM
[11] = Microsome Stability (% remaining @1 hour); assay type: in vitro ADME; settings: SD Rat; 2 μM
CYP450 2C19 = CYP450 2C19 (Homo sapiens, UniProt P33261); test: CYP450 Panel; assay type: in vitro ADME; settings: 10 μM; substrate mephenytoin; in % (unit assumed)
Chain of CYP450 2C19 (P33261 whole entry): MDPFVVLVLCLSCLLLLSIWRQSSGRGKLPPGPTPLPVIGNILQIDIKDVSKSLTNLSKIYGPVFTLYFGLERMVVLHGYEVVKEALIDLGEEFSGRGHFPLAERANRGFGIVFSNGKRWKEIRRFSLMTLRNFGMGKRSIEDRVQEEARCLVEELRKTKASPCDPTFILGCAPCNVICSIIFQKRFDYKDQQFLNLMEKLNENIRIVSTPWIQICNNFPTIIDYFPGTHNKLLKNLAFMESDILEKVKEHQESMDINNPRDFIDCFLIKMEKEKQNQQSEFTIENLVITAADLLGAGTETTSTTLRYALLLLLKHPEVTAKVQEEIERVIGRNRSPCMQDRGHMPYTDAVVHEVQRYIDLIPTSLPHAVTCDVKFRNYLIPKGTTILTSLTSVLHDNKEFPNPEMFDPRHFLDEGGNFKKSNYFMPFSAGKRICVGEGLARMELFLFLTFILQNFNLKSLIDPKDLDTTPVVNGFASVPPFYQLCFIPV

CYP450 3A4 = CYP450 3A4 (Homo sapiens, UniProt P08684); test: CYP450 Panel; assay type: in vitro ADME; settings: 10 μM; for CYP450 Panel 3A4 (midazolam): substrate midazolam; for CYP450 Panel 3A4 (testosterone): substrate testosterone
Chain of CYP450 3A4 (P08684 whole entry): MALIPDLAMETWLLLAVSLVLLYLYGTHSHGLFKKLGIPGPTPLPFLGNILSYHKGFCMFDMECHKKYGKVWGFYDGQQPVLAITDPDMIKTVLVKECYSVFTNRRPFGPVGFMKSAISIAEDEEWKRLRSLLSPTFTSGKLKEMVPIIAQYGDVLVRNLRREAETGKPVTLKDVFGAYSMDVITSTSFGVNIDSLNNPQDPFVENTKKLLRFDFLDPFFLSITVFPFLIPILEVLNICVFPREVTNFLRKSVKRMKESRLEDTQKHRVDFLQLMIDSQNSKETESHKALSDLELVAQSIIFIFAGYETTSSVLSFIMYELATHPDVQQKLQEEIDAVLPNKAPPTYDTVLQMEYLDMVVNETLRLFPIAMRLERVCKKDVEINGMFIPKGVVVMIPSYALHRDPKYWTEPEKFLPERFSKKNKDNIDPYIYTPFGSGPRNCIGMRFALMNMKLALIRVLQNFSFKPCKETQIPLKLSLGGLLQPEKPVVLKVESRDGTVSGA

[12] = Tissue pharmacokinetics in Colon-26 tumor bearing mice, 2-hour post dose; assay type: in vivo; settings: single dose 100 mg/kg p.o.
Experimental: Female mice (either athymic BALC/c nude, or BALB/c mice) were inoculated with a single subcutaneous injection of 0.2 ml of mouse Colon-26 cell suspension (1×10^5 cells per animal) in the inguinal region. Colon26 (C26) tumor bearing mice received a single dose (3 mice/treatment) of vehicle (10% DMSO/90% [20% SBE-R-CD in saline], pH 5) containing compounds at 100 mg/kg by gavage (p.o.) and 2-hour post dose humanely euthanized.
Blood was obtained through cardiac puncture into K+EDTA tubes, mixed by inversion and centrifuged to obtain the plasma. Tissues were excised, cleaned of surrounding tissues. All samples immediately snap frozen in liquid N2 prior to LC-MS/MS analysis (using Waters HSS T3 2.1×50 mm (1.8 um) LC column, and an API-6500 Electrospray MS unit).

CYP450 1A2 = biological target: T2, CYP450 1A2 (Homo sapiens, UniProt P05177); test: CYP450 Panel; settings: 10 μM; substrate phenacetin; in % (unit assumed)
T2 sequence (P05177 1-516): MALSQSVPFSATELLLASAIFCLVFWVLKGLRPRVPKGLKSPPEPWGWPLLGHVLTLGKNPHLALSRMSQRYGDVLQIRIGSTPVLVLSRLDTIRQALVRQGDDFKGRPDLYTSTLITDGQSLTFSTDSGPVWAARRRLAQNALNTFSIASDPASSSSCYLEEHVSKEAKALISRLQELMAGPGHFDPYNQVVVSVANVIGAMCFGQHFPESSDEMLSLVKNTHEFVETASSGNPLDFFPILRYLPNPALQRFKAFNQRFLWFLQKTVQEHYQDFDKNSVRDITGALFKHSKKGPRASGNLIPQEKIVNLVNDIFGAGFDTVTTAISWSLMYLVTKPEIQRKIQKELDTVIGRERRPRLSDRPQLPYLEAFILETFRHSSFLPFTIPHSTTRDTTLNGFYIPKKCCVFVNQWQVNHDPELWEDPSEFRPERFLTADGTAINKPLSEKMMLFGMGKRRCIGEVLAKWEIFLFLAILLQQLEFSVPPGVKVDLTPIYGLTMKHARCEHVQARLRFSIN

CYP450 2D6 [13] = biological target: T1, CYP450 2D6; test: CYP450 Panel; settings: 10 μM; substrate dextromethorphan; in % (unit assumed)
Caco-2 [14] = test: Caco-2 permeability; settings: 10 μM, 2 hrs
[15] = Microsome Stability (% remaining @1 hour); settings: CD-1 Mouse; 2 μM
Caco-2 [16] = tested on: Caco-2
CYP450 2C8 = biological target: T3, CYP450 2C8 (Homo sapiens, UniProt P10632); test: CYP450 Panel; assay type: in vitro ADME; settings: 10 μM; substrate amodiaquine
T3 sequence (P10632 1-490): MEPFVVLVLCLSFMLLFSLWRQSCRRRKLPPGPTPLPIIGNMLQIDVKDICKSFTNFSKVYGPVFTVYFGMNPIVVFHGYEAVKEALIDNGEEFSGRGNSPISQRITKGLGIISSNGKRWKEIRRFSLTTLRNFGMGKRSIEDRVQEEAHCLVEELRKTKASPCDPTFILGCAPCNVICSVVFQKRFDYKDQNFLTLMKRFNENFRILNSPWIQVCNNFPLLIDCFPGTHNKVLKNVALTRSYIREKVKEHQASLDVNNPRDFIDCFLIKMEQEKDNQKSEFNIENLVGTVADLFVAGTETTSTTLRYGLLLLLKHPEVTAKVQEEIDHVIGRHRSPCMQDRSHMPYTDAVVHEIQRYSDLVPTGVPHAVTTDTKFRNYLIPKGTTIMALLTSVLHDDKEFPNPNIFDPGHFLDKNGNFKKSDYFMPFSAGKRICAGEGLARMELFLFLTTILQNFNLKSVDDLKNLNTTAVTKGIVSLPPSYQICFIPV

pERK in A549 (KRAS-G12S) = test: Cell-based pERK dose response / phospho-ERK screen in A549; set-up: species or system Human; settings: A549 (KRAS G12S), 10 μM for 2 hours
Experimental: Materials and Methods: A549 or A375 cells were seeded in 6-well plates at an appropriate seeding density on day 0. On day 2 or 3, after checking the health and confluency of cells, the media was aspirated and replaced with 1 mL media containing a predetermined concentration of compound and incubated for 2 hours. After 2 hours, the media was aspirated, and the cells washed 2 times with cold PBS. Cells were lysed on ice, with 50 μL 1× CST lysis buffer+1 mM PMSF for 5 minutes. After 5 minutes, cells were removed using a scraper and transferred to cold 1.5 mL tubes, and centrifuged for 10 min, 4° C., 14,000×g. Supernatant was gently removed and snap frozen in liquid nitrogen. Protein concentration of the lysate was determined using Bradford Reagent (analyzed using SpectraMax M2E) and diluted to 1 mg/mL or pERK or 1.5 mg/mL for pMEK analysis. […] All dilutions were in Milk-free antibody diluent.

CYP450 2B6 = biological target: T4, CYP450 2B6 (Homo sapiens, UniProt P20813); test: CYP450 Panel; assay type: in vitro ADME; settings: 10 μM; substrate bupropion
T4 sequence (P20813 1-491): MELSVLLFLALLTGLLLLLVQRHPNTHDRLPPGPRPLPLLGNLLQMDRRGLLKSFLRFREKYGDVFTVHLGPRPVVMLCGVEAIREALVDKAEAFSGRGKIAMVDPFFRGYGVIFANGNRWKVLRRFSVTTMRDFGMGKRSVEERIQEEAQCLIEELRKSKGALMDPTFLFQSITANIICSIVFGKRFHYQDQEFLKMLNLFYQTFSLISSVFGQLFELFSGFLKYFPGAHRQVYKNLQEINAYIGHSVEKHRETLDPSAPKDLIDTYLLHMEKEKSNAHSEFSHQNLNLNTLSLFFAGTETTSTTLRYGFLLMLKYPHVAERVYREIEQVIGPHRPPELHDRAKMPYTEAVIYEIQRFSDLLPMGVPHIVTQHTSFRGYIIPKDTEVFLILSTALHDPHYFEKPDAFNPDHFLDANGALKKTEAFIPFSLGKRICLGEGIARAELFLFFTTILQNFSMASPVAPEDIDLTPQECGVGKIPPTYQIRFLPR

hERG Channel = hERG Channel (Homo sapiens, UniProt Q12809); test: biochemical
Chain of hERG Channel (Q12809 whole entry): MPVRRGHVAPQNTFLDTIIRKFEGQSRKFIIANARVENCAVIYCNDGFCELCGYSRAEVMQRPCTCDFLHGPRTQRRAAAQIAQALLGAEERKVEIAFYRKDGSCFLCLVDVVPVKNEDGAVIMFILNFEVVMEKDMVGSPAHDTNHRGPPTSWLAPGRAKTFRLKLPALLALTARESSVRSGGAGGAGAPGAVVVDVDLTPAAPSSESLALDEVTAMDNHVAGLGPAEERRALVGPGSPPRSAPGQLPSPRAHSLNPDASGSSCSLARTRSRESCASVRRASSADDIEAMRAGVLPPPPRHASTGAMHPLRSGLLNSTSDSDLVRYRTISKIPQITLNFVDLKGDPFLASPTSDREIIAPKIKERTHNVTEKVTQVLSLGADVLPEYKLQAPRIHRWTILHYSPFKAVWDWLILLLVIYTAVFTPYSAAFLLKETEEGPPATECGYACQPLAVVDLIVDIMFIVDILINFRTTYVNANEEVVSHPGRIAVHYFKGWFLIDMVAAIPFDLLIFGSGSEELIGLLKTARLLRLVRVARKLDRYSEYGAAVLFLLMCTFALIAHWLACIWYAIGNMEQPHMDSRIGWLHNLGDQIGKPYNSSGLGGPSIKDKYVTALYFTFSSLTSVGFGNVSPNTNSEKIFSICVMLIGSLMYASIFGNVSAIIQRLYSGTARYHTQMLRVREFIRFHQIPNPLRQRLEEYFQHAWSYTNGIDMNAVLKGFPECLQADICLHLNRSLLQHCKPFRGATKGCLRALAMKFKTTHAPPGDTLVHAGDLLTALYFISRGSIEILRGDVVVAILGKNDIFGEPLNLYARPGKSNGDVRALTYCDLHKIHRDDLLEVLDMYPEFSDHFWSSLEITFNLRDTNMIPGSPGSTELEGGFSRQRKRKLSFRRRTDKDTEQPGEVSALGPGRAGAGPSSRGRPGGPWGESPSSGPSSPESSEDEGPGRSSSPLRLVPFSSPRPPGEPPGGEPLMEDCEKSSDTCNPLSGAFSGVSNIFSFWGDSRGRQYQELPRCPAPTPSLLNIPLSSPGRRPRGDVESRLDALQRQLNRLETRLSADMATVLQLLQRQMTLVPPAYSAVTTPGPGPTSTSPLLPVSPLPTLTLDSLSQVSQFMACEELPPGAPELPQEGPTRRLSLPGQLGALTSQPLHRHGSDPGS

Caco-2 permeability = settings: human

Compound: Cn1cnc2c(F)c(Nc3ccc(Br)cc3F)c(C(=O)NOCCO)cc21 [Binimetinib]
- half-lives per (BID) cycle [1]: ≤ 3.4 half-lives
- half-life ([2]; in vivo): 3.5 h

Compound: C=C[C@H]1C[N@@]2CC[C@H]1C[C@@H]2[C@@H](O)c1ccnc2ccc(OC)cc12 [Quinidine]
- CYP450 Panel 2D6 (CYP450 2D6 [7]): 99.7

Compound: Nc1ccc(S(=O)(=O)Nc2ccnn2-c2ccccc2)cc1 [Sulfaphenazole]
- CYP450 Panel 2C9 (CYP450 2C9): 101.2

Compound: COc1ccc2[nH]c([S+]([O-])Cc3ncc(C)c(OC)c3C)nc2c1 (stereo not drawn) [Omeprazole]
- CYP450 Panel 2C19 (CYP450 2C19): 61.6

Compound: CNS(=O)(=O)Nc1cccc(Cc2c(C)c3ccc(OC(=O)N(C)C)cc3oc2=O)c1F [Reference 7]
- pERK: total ERK (% relative to vehicle) (pERK in A549 (KRAS-G12S); Table 8A): 0.53%
- pERK: total ERK (% relative to vehicle) (pERK in A549 (KRAS-G12S); Table 8B): 3.33%
- Microsome stability, % Remaining @1 hour [9]: 61.1%
- Microsome stability, % Remaining @1 hour [10]: 57.0%
- Microsome stability, % Remaining @1 hour [11]: 2.7%
- Plasma stability, % Remaining @2 hour [3]: 88.1%
- Plasma stability, % Remaining @2 hour [4]: 99.8%
- Plasma stability, % Remaining @2 hour [5]: 77.3%
- Plasma stability, % Remaining @2 hour [6]: 56.5%
- CYP450 Panel 2B6 (CYP450 2B6): 28.5%
- CYP450 Panel 2C8 (CYP450 2C8): 14.4%
- CYP450 Panel 2C9 (CYP450 2C9): 33.8
- CYP450 Panel 2C19 (CYP450 2C19): 11.6
- CYP450 Panel 3A4 (midazolam) (CYP450 3A4): 29.9%
- CYP450 Panel 3A4 (testosterone) (CYP450 3A4): 59.7%
- IC50 (hERG Channel): 28.6 µM
- CYP450 Panel 1A2 (CYP450 1A2): 0.3
- CYP450 Panel 2D6 (CYP450 2D6 [13]): −7.4
- Papp A→B at 2 h, 10 μM (Caco-2 permeability): 14.4 ×10⁻⁶ cm/s
- Papp B→A at 2 h, 10 μM (Caco-2 permeability): 10 ×10⁻⁶ cm/s
- efflux ratio at 2 h, 10 μM (Caco-2 permeability): 0.695
- A − B Permeability Ranking (Caco-2 [14]): High
- Microsome stability, % Remaining @1 hour [15]: 29.6%

Compound: CC[C@H](C)C(=O)O[C@H]1C[C@@H](C)C=C2C=C[C@H](C)[C@H](CC[C@@H]3C[C@@H](O)CC(=O)O3)[C@H]21 [Lovastatin]
- Plasma stability, % Remaining @2 hour [3]: 81.8%
- Plasma stability, % Remaining @2 hour [4]: 94.1%
- Plasma stability, % Remaining @2 hour [5]: 0.6%
- Plasma stability, % Remaining @2 hour [6]: 0.6%

Now from value to molecule, other results behind:

- Plasma stability, % Remaining @2 hour [3]: 5.7%
- Plasma stability, % Remaining @2 hour [4]: 58.4%
- Plasma stability, % Remaining @2 hour [5]: 92.6%
- Plasma stability, % Remaining @2 hour [6]: 27.1%
Compound: CC(C)[N+](C)(CCOC(=O)C1c2ccccc2Oc2ccccc21)C(C)C [Propantheline]

- eLogD (lipophilicity; pH = 7.4) [8]: 3.6
- Microsome stability, % Remaining @1 hour [9]: 107.1%
- Microsome stability, % Remaining @1 hour [10]: 111.6%
- Microsome stability, % Remaining @1 hour [11]: 102.0%
- Plasma stability, % Remaining @2 hour [3]: 91.1%
- Plasma stability, % Remaining @2 hour [4]: 99.8%
- Plasma stability, % Remaining @2 hour [5]: 99.8%
- Plasma stability, % Remaining @2 hour [6]: 92.9%
- CYP450 Panel 2C19 (CYP450 2C19): −0.9
- CYP450 Panel 3A4 (midazolam) (CYP450 3A4): 16.6%
- CYP450 Panel 3A4 (testosterone) (CYP450 3A4): 15.7%
- Liver concentration [12]: 1990 ng/g
- Muscle concentration [12]: 550 ng/g
- Plasma concentration [12]: 5670 ng/mL
- Tumor concentration [12]: 819 ng/g
- CYP450 Panel 1A2 (CYP450 1A2): 0.8
- CYP450 Panel 2D6 (CYP450 2D6 [13]): 3.4
- A − B Permeability Ranking (Caco-2 [14]): High
- Microsome stability, % Remaining @1 hour [15]: 96.0%
Compound: CNS(=O)(=O)Nc1nccc(Cc2c(C)c3ccc(Oc4ncccn4)cc3oc2=O)c1F [Reference 2]

- A − B Permeability Ranking (Caco-2 [16]): High
Compound: CC(=O)CC(c1ccccc1)c1c(O)c2ccccc2oc1=O (stereo not drawn) [Warfarin]

- A − B Permeability Ranking (Caco-2 [14]): Low
Compound: CNC(=C[N+](=O)[O-])NCCSCc1ccc(CN(C)C)o1 [Ranitidine]

- CYP450 Panel 2C8 (CYP450 2C8): 93.1%
Compound: O=c1c(O)c(-c2ccc(O)c(O)c2)oc2cc(O)cc(O)c12 [Quercetin]

- half-lives per (BID) cycle [1]: ≤ 0.25 half-lives
Compound: CC(=O)Nc1cccc(-n2c(=O)n(C3CC3)c(=O)c3c(Nc4ccc(I)cc4F)n(C)c(=O)c(C)c32)c1 [trametinib]
- human plasma half-life ([2]; human): 96 h

- half-lives per (BID) cycle [1]: ≤ 0.55 half-lives
Compound: O=C(c1ccc(F)c(F)c1Nc1ccc(I)cc1F)N1CC(O)([C@@H]2CCCCN2)C1 [cobimetinib]
- Tmax ([2]; human): 2.4 h
- human plasma half-life ([2]; human): 44 h
